Drawing on US10011611B2, “Histone deacetylase inhibitors and methods for use thereof” (Reaction Biology Corp., priority 2015, dated 2018), this text covers IC50 for 1 compound.

One assay has as its target Recombinant human HDAC6 (Homo sapiens (Human), UniProt Q9UBN7). In words: HDAC6 biochemical fluorescent activity assay. The note with it: substrate Arg-His-Lys-Lys(Ac).
The target in another assay is Human HDAC5 (Homo sapiens (Human), UniProt Q9UQL6). In words: HDAC5 biochemical fluorescent activity assay.
Sequence of Human HDAC5 (Q9UQL6 whole entry): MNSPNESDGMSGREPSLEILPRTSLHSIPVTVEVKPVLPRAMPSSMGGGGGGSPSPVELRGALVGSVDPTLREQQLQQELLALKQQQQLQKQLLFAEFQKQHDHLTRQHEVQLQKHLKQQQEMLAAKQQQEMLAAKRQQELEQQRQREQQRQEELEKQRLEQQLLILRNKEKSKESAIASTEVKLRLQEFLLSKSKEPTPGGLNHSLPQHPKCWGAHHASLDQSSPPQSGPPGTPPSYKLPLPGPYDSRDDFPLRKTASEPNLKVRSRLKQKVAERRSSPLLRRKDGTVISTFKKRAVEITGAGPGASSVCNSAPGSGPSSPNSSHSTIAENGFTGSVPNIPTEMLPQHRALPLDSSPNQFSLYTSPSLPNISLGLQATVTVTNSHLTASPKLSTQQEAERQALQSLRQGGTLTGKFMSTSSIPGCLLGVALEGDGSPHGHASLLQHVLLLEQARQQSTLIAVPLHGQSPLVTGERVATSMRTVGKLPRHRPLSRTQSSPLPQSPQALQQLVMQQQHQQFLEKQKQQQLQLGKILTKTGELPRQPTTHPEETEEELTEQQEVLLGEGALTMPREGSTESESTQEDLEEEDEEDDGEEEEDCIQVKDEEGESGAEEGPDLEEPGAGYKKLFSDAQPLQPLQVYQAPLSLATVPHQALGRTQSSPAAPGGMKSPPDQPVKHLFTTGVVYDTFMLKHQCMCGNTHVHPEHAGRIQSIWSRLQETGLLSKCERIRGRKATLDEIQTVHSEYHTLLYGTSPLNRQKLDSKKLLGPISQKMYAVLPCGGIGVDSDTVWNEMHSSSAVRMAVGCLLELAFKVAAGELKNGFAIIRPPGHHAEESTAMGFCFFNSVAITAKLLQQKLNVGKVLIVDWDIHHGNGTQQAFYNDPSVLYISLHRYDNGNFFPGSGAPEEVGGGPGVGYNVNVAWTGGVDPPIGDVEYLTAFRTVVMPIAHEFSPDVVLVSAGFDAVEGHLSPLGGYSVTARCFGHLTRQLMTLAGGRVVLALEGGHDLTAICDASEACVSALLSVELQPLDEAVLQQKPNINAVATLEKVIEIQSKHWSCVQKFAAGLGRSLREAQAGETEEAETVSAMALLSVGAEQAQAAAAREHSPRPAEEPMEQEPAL
The next assay addresses Human HDAC10 (Homo sapiens (Human), UniProt Q969S8). In words: HDAC10 biochemical fluorescent activity assay. The note with it: substrate Arg-His-Lys-Lys(Ac).
For the next assay, the target named is Human HDAC2 (Homo sapiens (Human), UniProt Q92769). In words: HDAC2 biochemical fluorescent activity assay. The following applies: substrate Arg-His-Lys-Lys(Ac).
Sequence of Human HDAC2 (Q92769 whole entry): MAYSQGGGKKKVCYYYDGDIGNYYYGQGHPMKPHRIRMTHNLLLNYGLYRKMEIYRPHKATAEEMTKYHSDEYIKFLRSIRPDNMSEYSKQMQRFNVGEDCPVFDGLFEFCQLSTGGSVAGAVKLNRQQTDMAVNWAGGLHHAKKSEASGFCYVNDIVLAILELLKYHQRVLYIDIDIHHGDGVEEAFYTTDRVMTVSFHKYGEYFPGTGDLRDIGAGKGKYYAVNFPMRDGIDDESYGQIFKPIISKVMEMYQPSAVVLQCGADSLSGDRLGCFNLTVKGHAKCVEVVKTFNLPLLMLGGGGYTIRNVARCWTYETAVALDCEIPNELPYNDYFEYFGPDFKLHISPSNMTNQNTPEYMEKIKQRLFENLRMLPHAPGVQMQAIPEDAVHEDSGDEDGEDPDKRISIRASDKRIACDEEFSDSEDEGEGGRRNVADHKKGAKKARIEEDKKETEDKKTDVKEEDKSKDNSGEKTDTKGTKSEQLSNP
The target of a further assay is Human HDAC1 (Homo sapiens (Human), UniProt Q13547). Kind of assay: HDAC1 biochemical fluorescent activity assay. The following applies: substrate Arg-His-Lys-Lys(Ac).
Sequence of Human HDAC1 (Q13547 whole entry): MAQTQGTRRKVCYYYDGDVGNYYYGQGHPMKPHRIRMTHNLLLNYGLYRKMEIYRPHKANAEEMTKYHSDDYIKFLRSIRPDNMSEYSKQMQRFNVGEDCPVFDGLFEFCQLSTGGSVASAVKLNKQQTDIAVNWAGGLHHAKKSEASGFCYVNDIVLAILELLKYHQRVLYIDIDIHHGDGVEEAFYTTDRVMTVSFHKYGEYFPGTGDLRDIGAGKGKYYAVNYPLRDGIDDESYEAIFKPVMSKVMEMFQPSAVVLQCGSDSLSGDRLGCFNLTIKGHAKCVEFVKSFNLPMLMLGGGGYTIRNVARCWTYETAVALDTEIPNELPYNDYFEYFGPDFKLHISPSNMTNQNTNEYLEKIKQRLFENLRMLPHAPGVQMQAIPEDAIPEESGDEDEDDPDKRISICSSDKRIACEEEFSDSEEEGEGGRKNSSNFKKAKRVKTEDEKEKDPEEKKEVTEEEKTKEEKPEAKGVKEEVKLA
The target in the next assay is Human HDAC11 (Homo sapiens (Human), UniProt Q96DB2). In words: HDAC11 biochemical fluorescent activity assay. The following applies: substrate Arg-His-Lys-Lys(Ac).
Sequence of Human HDAC11 (Q96DB2 whole entry): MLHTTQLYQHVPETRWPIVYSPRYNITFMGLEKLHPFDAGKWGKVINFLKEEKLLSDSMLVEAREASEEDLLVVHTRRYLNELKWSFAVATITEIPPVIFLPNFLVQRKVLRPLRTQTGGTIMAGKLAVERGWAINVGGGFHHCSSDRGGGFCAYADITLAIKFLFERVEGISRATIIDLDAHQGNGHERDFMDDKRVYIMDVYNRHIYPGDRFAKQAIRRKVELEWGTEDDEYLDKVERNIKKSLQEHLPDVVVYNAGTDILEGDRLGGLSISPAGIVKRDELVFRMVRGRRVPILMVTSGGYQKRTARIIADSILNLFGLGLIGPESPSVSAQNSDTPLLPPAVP
In the next assay the target is Human HDAC8 (Homo sapiens (Human), UniProt Q9BY41). In words: HDAC8 biochemical fluorescent activity assay. The note with it: substrate Arg-His-Lys(Ac)-Lys(Ac).
Sequence of Human HDAC8 (Q9BY41 whole entry): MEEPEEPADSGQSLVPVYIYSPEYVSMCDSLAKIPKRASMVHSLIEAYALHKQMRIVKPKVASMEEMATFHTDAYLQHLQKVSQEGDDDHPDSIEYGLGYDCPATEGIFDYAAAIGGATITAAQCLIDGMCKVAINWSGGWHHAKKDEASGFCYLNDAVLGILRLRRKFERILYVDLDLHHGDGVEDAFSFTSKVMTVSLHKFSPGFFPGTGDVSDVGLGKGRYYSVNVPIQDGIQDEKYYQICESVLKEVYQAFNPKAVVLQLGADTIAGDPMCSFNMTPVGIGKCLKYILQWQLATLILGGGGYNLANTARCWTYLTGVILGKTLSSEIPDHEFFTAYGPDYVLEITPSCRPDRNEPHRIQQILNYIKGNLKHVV

Sequence of Recombinant human HDAC6 (Q9UBN7 whole entry): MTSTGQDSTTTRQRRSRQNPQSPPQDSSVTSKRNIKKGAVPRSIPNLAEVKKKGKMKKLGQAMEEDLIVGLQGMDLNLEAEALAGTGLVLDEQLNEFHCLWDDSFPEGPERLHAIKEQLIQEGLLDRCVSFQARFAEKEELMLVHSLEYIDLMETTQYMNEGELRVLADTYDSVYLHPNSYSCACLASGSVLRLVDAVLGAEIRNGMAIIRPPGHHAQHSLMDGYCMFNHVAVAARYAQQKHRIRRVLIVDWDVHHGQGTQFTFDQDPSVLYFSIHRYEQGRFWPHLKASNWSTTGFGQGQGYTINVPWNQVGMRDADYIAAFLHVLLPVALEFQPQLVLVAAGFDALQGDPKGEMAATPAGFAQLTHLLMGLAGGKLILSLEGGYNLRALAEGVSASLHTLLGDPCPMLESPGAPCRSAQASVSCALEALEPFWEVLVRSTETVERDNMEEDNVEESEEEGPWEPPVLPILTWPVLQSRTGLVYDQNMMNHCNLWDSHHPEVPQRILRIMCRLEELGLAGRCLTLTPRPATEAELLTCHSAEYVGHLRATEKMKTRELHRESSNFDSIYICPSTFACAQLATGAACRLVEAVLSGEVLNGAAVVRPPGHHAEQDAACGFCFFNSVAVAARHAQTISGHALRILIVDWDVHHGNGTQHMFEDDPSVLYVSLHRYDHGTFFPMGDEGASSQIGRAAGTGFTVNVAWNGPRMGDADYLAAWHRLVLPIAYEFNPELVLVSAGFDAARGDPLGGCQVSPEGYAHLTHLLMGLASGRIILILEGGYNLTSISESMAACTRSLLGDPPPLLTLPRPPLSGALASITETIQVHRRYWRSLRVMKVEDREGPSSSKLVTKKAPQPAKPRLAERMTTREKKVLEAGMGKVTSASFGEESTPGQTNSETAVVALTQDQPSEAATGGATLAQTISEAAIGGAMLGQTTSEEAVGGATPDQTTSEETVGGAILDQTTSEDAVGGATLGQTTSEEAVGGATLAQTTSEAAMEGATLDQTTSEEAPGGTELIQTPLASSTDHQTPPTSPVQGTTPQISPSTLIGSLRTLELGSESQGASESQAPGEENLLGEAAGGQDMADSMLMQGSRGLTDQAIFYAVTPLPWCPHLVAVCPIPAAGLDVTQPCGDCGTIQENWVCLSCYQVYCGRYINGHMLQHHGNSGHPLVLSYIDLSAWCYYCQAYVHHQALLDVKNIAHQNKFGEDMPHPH
Sequence of Human HDAC10 (Q969S8 1-481): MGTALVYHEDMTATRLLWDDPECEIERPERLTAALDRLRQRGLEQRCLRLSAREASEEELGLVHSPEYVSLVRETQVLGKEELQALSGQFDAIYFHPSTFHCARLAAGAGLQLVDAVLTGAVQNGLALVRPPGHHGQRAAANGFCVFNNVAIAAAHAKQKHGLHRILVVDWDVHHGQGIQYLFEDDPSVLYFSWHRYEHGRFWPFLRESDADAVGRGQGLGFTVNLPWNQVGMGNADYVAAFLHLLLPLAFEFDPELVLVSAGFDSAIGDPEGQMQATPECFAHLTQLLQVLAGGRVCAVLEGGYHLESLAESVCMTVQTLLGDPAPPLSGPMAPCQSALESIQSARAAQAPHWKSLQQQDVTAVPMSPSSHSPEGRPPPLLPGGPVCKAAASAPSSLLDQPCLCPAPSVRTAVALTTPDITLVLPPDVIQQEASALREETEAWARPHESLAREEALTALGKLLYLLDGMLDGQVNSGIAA

One may read the IC50 as the concentration that inhibits the measured activity by half. Turning to `O=C(NO)c1ccc(Cn2sc3ncccc3c2=O)cc1` [RBC-3001-A, N-hydroxy-4-((3-oxoisothiazolo[5,4-b]pyridin-2(3H)-yl)methyl)benzamide], the IC50 at Recombinant human HDAC6 worked out at 0.958 nM; on Human HDAC5 it was 508 nM; on Human HDAC10, 4260 nM; against Human HDAC2 it was 5400 nM; against Human HDAC1, 175 nM; at Human HDAC11, 2840 nM. The compound also returned an IC50 against Human HDAC8 of 27.1 nM.
